Results as given in US20230031406A1, “COMPOUNDS AND COMPOSITIONS FOR TREATING CONDITIONS ASSOCIATED WITH NLRP ACTIVITY” (Novartis AG, priority 2018, published 2023).

Each molecule was assayed on PMA-differentiated THP-1 cells (assay: IL-1β production in PMA-differentiated THP-1 cells stimulated with gramicidin (hTHP-1 assay containing 2% fetal bovine serum; Procedures 1 and 2)). Settings: Homo sapiens, THP-1, Table B2; 2% fetal bovine serum; class symbols; read-out: hTHP-1 IC50.
Assay type: cell-based, human
How it was run: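 Compound titrations in 0.37% final DMSO were added to THP-1 cells that had been plated after 16-18 h PMA treatment, 50,000 per well in 2% FBS. One hour later the cells received gramicidin (5 μM, 2 h) and were centrifuged. HTRF detected IL-1β in the collected supernatants.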

Q: For Cc1cn(C(C)C)nc1S(N)(=O)=NC(=O)Nc1c2c(nc3c1CCC3)CCC2 (single isomer, unassigned) [Compound 687b, (R) or (S)-N′-((1,2,3,5,6,7-hexahydrodicyclopenta [b,e]pyridin-8-yl)carbamoyl)-1-isopropyl-4-methyl-1H-pyrazole-3-sulfonimidamide], which IC50 is on record?
A: The IC50 was 5 to 30 µM.

Q: COCc1nc(C(C)(C)O)sc1S(N)(=O)=NC(=O)Nc1c2c(nc3c1CCC3)CCC2 (single isomer, unassigned) [Compound 689b, (R) or (S)-N′-((1,2,3,5,6,7-hexahydrodicyclopenta [b,e]pyridin-8-yl)carbamoyl)-2-(2-hydroxypropan-2-yl)-4-(methoxymethyl) thiazole-5-sulfonimidamide] was tested. Which IC50 did it give?
A: The IC50 was 5 to 30 µM.

Q: Which IC50 does the source give for CC(C)(O)c1cc(Br)c(S(N)(=O)=NC(=O)Nc2c3c(nc4c2CCC4)CCC3)s1 (single isomer, unassigned) [Compound 690b, (R) or (S)-3-Bromo-N′-((1,2,3,5,6,7-hexahydrodicyclopenta [b,e]pyridin-8-yl)carbamoyl)-5-(2-hydroxypropan-2-yl)thiophene-2-sulfonimidamide] here?
A: The IC50 was 1 to 5 µM.

Q: Which IC50 does the source give for CC(C)n1cc(Cl)c(S(N)(=O)=NC(=O)Nc2c3c(nc4c2CCC4)CCC3)n1 (single isomer, unassigned) [Compound 694b, (R) or (S)-4-Chloro-N′-((1,2,3,5,6,7-hexahydrodicyclopenta [b,e]pyridin-8-yl)carbamoyl)-1-isopropyl-1H-pyrazole-3-sulfonimidamide] here?
A: Its IC50 is 1 to 5 µM.

Q: Cc1cc(C(C)(C)O)sc1S(N)(=O)=NC(=O)Nc1c2c(nc3c1CCC3)CCC2 (single isomer, unassigned) [Compound 695b, (R) or (S)-N′-((1,2,3,5,6,7-hexahydrodicyclopenta [b,e]pyridin-8-yl)carbamoyl)-5-(2-hydroxypropan-2-yl)-3-methylthiophene-2-sulfonimidamide] was tested. Which IC50 did it give?
A: Its IC50 is 5 to 30 µM.

Q: For C[C@@H]1CCc2c1nc1c(c2NC(=O)N=S(N)(=O)c2ccn(-c3ccccc3)n2)CCC1 (single isomer, unassigned) [Compound 700b, (R) or (S)-N′-(((R)-3-methyl-1,2,3,5,6,7-hexahydrodicyclopenta [b,e]pyridin-8-yl)carbamoyl)-1-phenyl-1H-pyrazole-3-sulfonimidamide], which IC50 is on record?
A: Its IC50 is 0.2 to 1 µM.

Same assay, conditions: Homo sapiens, THP-1, Table B2; 2% fetal bovine serum; numeric bounds; read-out: hTHP-1 IC50

Q: Which IC50 does the source give for Cc1cn(C(C)C)nc1S(N)(=O)=NC(=O)Nc1c2c(nc3c1CCC3)CCC2 (single isomer, unassigned) [Compound 687a, (S) or (R)-N′-((1,2,3,5,6,7-hexahydrodicyclopenta [b,e]pyridin-8-yl)carbamoyl)-1-isopropyl-4-methyl-1H-pyrazole-3-sulfonimidamide] here?
A: The IC50 was > 30 µM.

Q: How did the IC50 turn out when COCc1nc(C(C)(C)O)sc1S(N)(=O)=NC(=O)Nc1c2c(nc3c1CCC3)CCC2 (single isomer, unassigned) [Compound 689a, (S) or (R)-N′-((1,2,3,5,6,7-hexahydrodicyclopenta [b,e]pyridin-8-yl)carbamoyl)-2-(2-hydroxypropan-2-yl)-4-(methoxymethyl) thiazole-5-sulfonimidamide] was run?
A: The IC50 was > 30 µM.

Q: With CC(C)(O)c1cc(Br)c(S(N)(=O)=NC(=O)Nc2c3c(nc4c2CCC4)CCC3)s1 (single isomer, unassigned) [Compound 690a, (S) or (R)-3-Bromo-N′-((1,2,3,5,6,7-hexahydrodicyclopenta [b,e]pyridin-8-yl)carbamoyl)-5-(2-hydroxypropan-2-yl)thiophene-2-sulfonamidamide] as the molecule, how does the IC50 read?
A: The IC50 was > 30 µM.

Q: For CC(C)n1cc(Cl)c(S(N)(=O)=NC(=O)Nc2c3c(nc4c2CCC4)CCC3)n1 (single isomer, unassigned) [Compound 694a, (S) or (R)-4-Chloro-N′-((1,2,3,5,6,7-hexahydrodicyclopenta [b,e]pyridin-8-yl)carbamoyl)-1-isopropyl-1H-pyrazole-3-sulfonimidamide], which IC50 is on record?
A: The IC50 was > 30 µM.

Q: For Cc1cc(C(C)(C)O)sc1S(N)(=O)=NC(=O)Nc1c2c(nc3c1CCC3)CCC2 (single isomer, unassigned) [Compound 695a, (S) or (R)-N′-((1,2,3,5,6,7-hexahydrodicyclopenta [b,e]pyridin-8-yl)carbamoyl)-5-(2-hydroxypropan-2-yl)-3-methylthiophene-2-sulfonimidamide], which IC50 is on record?
A: The IC50 was > 30 µM.

Q: For CC1(C)CCc2c1nc1c(c2NC(=O)N=S(N)(=O)c2sc(C(C)(O)CO)cc2F)CCC1 (single isomer, unassigned) [Compound 699a, (S, S) and (R, S) or (S, R) and (R, R)-5-(1,2-Dihydroxypropan-2-yl)-N′-((3,3-dimethyl-1,2,3,5,6,7-hexahydrodicyclopenta [b,e]pyridin-8-yl)carbamoyl)-3-fluorotliophene-2-sulfonimidamide], which IC50 is on record?
A: Its IC50 is > 30 µM.

Q: C[C@@H]1CCc2c1nc1c(c2NC(=O)N=S(N)(=O)c2ccn(-c3ccccc3)n2)CCC1 (single isomer, unassigned) [Compound 700a, (S) or (R)-N′-(((R)-3-methyl-1,2,3,5,6,7-hexahydrodicyclopenta [b,e]pyridin-8-yl)carbamoyl)-1-phenyl-1H-pyrazole-3-sulfonimidamide] was tested. Which IC50 did it give?
A: Its IC50 is > 30 µM.

Same assay, conditions: Table B2; 2% fetal bovine serum; class symbols; read-out: hTHP-1 IC50

Q: CC(C)(O)c1sc(S(N)(=O)=NC(=O)Nc2c3c(nc4c2CCC4)CCC3)cc1Cl (single isomer, unassigned) [Compound 688a, (R) or (S)-4-Chloro-N′-((1,2,3,5,6,7-hexahydrodicyclopenta [b,e]pyridin-8-yl)carbamoyl)-5-(2-hydroxypropan-2-yl)thiophene-2-sulfonimidamide] was tested. Which IC50 did it give?
A: Its IC50 is 0.2 to 1 µM.

Q: With CC(C)(O)c1sc(S(N)(=O)=NC(=O)Nc2c3c(nc4c2CCC4)CCC3)cc1Cl (single isomer, unassigned) [Compound 688b, (S) or (R)-4-Chloro-N′-((1,2,3,5,6,7-hexahydrodicyclopenta [b,e]pyridin-8-yl)carbamoyl)-5-(2-hydroxypropan-2-yl)thiophene-2-sulfonimidamide] as the molecule, how does the IC50 read?
A: The IC50 was 5 to 30 µM.

Q: CC(C)(O)c1cc(Cl)c(S(N)(=O)=NC(=O)Nc2c3c(nc4c2CCC4)CCC3)s1 (single isomer, unassigned) [Compound 691a, (S) or (R)-3-Chloro-N′-((1,2,3,5,6,7-hexahydrodicyclopenta [b,e]pyridin-8-yl)carbamoyl)-5-(2-hydroxypropan-2-yl)thiophene-2-sulfonimidamide] was tested. Which IC50 did it give?
A: Its IC50 is 5 to 30 µM.

Q: Which IC50 does the source give for CC(C)(O)c1cc(Cl)c(S(N)(=O)=NC(=O)Nc2c3c(nc4c2CCC4)CCC3)s1 (single isomer, unassigned) [Compound 691b, (R) or (S)-3-Chloro-N′-((1,2,3,5,6,7-hexahydrodicyclopenta [b,e]pyridin-8-yl)carbamoyl)-5-(2-hydroxypropan-2-yl)thiophene-2-sulfonimidamide] here?
A: Its IC50 is 1 to 5 µM.

Q: Cc1cc(S(N)(=O)=NC(=O)Nc2c3c(nc4c2CCC4)CCC3)sc1C(C)(C)O (single isomer, unassigned) [Compound 692a, (S) or (R)-N′-((1,2,3,5,6,7-hexahydrodicyclopenta [b,e]pyridin-8-yl)carbamoyl)-5-(2-hydroxypropan-2-yl)-4-methylthiophene-2-sulfonimidamide] was tested. Which IC50 did it give?
A: Its IC50 is 5 to 30 µM.

Q: For Cc1cc(S(N)(=O)=NC(=O)Nc2c3c(nc4c2CCC4)CCC3)sc1C(C)(C)O (single isomer, unassigned) [Compound 692b, (R) or (S)-N′-((1,2,3,5,6,7-hexahydrodicyclopenta [b,e]pyridin-8-yl)carbamoyl)-5-(2-hydroxypropan-2-yl)-4-methylthiophene-2-sulfonimidamide], which IC50 is on record?
A: Its IC50 is 1 to 5 µM.

Q: How did the IC50 turn out when CCn1ccc(S(N)(=O)=NC(=O)Nc2c3c(nc4c2CCC4(C)C)CCC3)n1 (single isomer, unassigned) [Compound 697a, (S) or (R)-N′-((3,3-dimethyl-1,2,3,5,6,7-hexahydrodicyclopenta [b,e]pyridin-8-yl)carbamoyl)-1-ethyl-1H-pyrazole-3-sulfonimidamide] was run?
A: Its IC50 is 5 to 30 µM.

Q: With CCn1ccc(S(N)(=O)=NC(=O)Nc2c3c(nc4c2CCC4(C)C)CCC3)n1 (single isomer, unassigned) [Compound 697b, (R) or (S)-N′-((3,3-dimethyl-1,2,3,5,6,7-hexahydrodicyclopenta [b,e]pyridin-8-yl)carbamoyl)-1-ethyl-1H-pyrazole-3-sulfonimidamide] as the molecule, how does the IC50 read?
A: The IC50 was 0.04 to 0.2 µM.

Q: Which IC50 does the source give for CCc1c(C(F)(F)F)nc2c(c1NC(=O)N=S(N)(=O)c1cc(C(C)(C)O)cs1)CCC2 (single isomer, unassigned) [Compound 698a, (S) or (R)-N′-((3-ethyl-2-(trifluoromethyl)-6,7-dihydro-5H-cyclopenta[b]pyridin-4-yl)carbamoyl)-4-(2-hydroxypropan-2-yl)thiophene-2-sulfonimidamide] here?
A: The IC50 was 1 to 5 µM.

Q: CCc1c(C(F)(F)F)nc2c(c1NC(=O)N=S(N)(=O)c1cc(C(C)(C)O)cs1)CCC2 (single isomer, unassigned) [Compound 698b, (R) or (S)-N′-((3-ethyl-2-(trifluoromethyl)-6,7-dihydro-5H-cyclopenta[b]pyridin-4-yl)carbamoyl)-4-(2-hydroxypropan-2-yl)thiophene-2-sulfonimidamide] was tested. Which IC50 did it give?
A: The IC50 was 0.2 to 1 µM.

Q: For CC1(C)CCc2c1nc1c(c2NC(=O)N=S(N)(=O)c2sc(C(C)(O)CO)cc2F)CCC1 (single isomer, unassigned) [Compound 699b, (S, R) and (R, R) or (R, S) and (S, S)-5-(1,2-Dihydroxypropan-2-yl)-N′-((3,3-dimethyl-1,2,3,5,6,7-hexahydrodicyclopenta [b,e]pyridin-8-yl)carbamoyl)-3-fluorotliophene-2-sulfoni midamide], which IC50 is on record?
A: The IC50 was 0.008 to 0.04 µM.

Q: Which IC50 does the source give for CC1(C)CCc2c1nc1c(c2NC(=O)N=S(N)(=O)c2sc(C(C)(O)CO)cc2F)CCC1 (single isomer, unassigned) [Compound 699c, (R, S) and (S, S) or (S, R) and (R, R)-5-(1,2-Dihydroxypropan-2-yl)-N′-((3,3-dimethyl-1,2,3,5,6,7-hexahydrodicyclopenta [b,e]pyridin-8-yl)carbamoyl)-3-fluorotliophene-2-sulfonimidamide] here?
A: Its IC50 is 5 to 30 µM.
